Patent EP2832347B1, “Method for identifying patchouli odorant materials” (Takasago International Corporation, priority 2013, dated 2015)

Target: T1, OR11A1 (Homo sapiens, UniProt Q9GZK7)
T1 construct: expressed in transfected cells; host or cells: HEKOlf (HEK293 stably expressing human Galpha-olf and bovine CNGA2)
T1 sequence (Q9GZK7 1-315): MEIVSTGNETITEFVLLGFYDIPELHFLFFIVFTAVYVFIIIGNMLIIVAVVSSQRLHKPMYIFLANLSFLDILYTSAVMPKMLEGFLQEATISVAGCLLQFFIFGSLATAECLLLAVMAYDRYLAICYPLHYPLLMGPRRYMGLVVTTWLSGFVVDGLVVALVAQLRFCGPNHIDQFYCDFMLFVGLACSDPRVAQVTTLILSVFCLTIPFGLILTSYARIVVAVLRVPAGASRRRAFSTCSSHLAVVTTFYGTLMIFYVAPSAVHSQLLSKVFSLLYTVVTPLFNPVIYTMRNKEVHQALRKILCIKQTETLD
Experiment: CRE-luciferase reporter assay in HEKOlf cells transiently transfected with OR11A1
Assay type: cell-based
Procedure: The experiments were performed using a HEK293 cell line (deposited at the ATCC under accession n° CRL-1573) stably expressing the Gαolf G-protein and the cyclic nucleotide gated ion channel A2 subunit (CNGA2) (herein called HEKOlf). As described by Shirokova et al., 2005, the human Gαolf cDNA was cloned into the mammalian expression vector pPuro and cDNA for the bovine cyclic nucleotide gated ion channel A2 (CNGA2) subunit was cloned into the mammalian expression vector pcDNA3. Both constructs were transfected using Lipofectamine2000 (Invitrogen) following the manufacturer's instructions. Cellular clones stably expressing Gαolf and CNGA2 were obtained by antibiotic selection with 0.5µg/ml Puromycin and 200µg/ml Geneticin.
All odorants were stored in the dark at 4°C upon delivery. They were prepared at 100mM stock solutions using DMSO as a solvent and stored at -20°C. On the day of the experiment the different stock solutions were directly diluted in the assay buffer (Tyrode's buffer) having the following composition: 5mM KCI, 130mM NaCl, 2mM CaCl2, 5mM NaHCO3, 1mM MgCl2, 20mM HEPES, pH7.4.
All transient transfections were performed with Lipofectamine 2000 (Invitrogen) according to the manufacturer's protocol. 10µl Lipofectamine 2000 were diluted in 500 µl DMEM and incubated for 5 minutes at room temperature. At the same time, 3µg of plasmid DNA were diluted in 500µl DMEM and added to the Lipofectamine 2000 mix to obtain a final volume of 1000µl. After incubation for a further 30 minutes at room temperature, the DNA-Lipofectamine complex was added to 1000µl of a cell suspension containing 1.600.000 cells/ml. Subsequently, 25µl per well of the complete mixture were seeded in black 384 well polystyrene assay plates. 25µl DMEM containing 20% FBS were added to each well 3 hours post-transfection.
The cDNAs for all olfactory receptors and an empty control vector were co-transfected with pGL4.29 (Promega). The pGL4.29 vector contains a cyclic adenosine monophosphate (cAMP) response element (CRE) that drives the transcription of the luciferase reporter gene luc2P (Photinus pyralis). luc2P is a synthetically-derived luciferase sequence with humanized codon optimization that is designed for high expression and reduced anomalous transcription.
In this assay, the interaction of an odorant with its cognate olfactory receptor leads to the activation of the human Gαolf G-protein. Gαolf is a stimulatory G-protein (Gαs) and activates adenylate cyclase, which converts adenosine triphosphate (ATP) into cAMP. Therefore, the activity of the transcribed luciferase can be used as an indication of olfactory receptor activation. 24 hours post-transfection the medium was removed from the transfected cells and 30 µl Tyrode's buffer containing the diluted odorants were added and incubated for 6 hours at 37°C. The cells were then transferred into an automated fluorometric imaging plate reader (FLIPR^TETRA, Molecular Devices). Subsequently, 25µl of a mixture composed of Triton X-100 and luciferin (1:1) were added. The addition of this mixture led to cell lyses and allowed interaction of the luciferase with its substrate luciferin resulting in a detectable emission of light.
The data obtained from different well replicates were analyzed with Excel, ScreenWorks, and SigmaPlot 10. The responses of each receptor to the odorants were divided by the mean responses of the receptor towards Tyrode's buffer (fold of change FOC1). The specificity of FOC1 was checked by comparing with a second FOC (FOC2) obtained by stimulating a control sample, consisting in an empty expression vector, with the same odorants and Tyrode's buffer. The mean and standard deviation of the resulting fold of change values were calculated and plotted in vertical bar charts or concentration-response curves fitted by the SigmaPlot 10 software.

Question: What does the source list for C[C@H]1CC[C@@]2(O)C(C)(C)[C@@H]3CC[C@@]2(C)[C@H]1C3 [Patchouli alcohol]?
Answer: activation of OR11A1 (Example 3, 10/30/100 µM): strongly activated; EC50 (Example 4, Table 5, 0.03-100 µM tested): 12.1 ± 1.7 µM; Potency and efficacy on OR11A1 (comparison between odorants) (Example 4, 0.1 to 100 µM (Figure 6)): comparable; activation of OR11A1 (Example 4, 3, 10 and 30 µM (Figure 5)): activated
